Test results taken from patent US20250032476A1, “ALPHA-2A ADRENERGIC RECEPTOR MODULATORS AND USES THEREOF” (The Regents of the University of California, priority 2021, published 2025).

Target: T1, ALPHA-2A ADRENERGIC RECEPTOR (Homo sapiens (Human), UniProt P08913)
Experiment: Arrestin recruitment
Format: cell-based
Conditions: Tables 7-9

T1 sequence (P08913 whole entry): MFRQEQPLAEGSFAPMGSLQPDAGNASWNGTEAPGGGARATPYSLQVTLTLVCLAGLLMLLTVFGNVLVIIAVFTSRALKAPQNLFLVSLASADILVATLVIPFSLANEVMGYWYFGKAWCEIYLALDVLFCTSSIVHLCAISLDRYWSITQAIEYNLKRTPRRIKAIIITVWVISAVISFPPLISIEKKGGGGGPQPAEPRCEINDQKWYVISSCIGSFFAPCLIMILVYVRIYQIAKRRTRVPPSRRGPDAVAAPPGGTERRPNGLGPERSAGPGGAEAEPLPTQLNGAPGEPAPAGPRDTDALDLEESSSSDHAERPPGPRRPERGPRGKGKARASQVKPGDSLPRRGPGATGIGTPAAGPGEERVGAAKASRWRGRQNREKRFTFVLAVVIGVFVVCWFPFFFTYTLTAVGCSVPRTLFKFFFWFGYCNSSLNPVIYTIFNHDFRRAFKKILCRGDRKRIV

Compound | Arrestin Emax (%) | Emax [%]
4-(1,2,5,6-tetrahydropyridin-3-yl)-1H-indole [PS-NN04] | <10 | 
Nc1ccc(-c2cc(C(F)(F)F)c3[nH]ncc3c2)cn1 [TP87, 5-(7-(Trifluoromethyl)-1H-indazol-5-yl)pyridin-2-amine] |  | < 10
Nc1ccc(-c2cc(Cl)c3[nH]ncc3c2)cn1 [TP73, 5-(7-Chloro-1H-indazol-5-yl)pyridin-2-amine] |  | < 10
Nc1ccc(-c2cc3cn[nH]c3cc2Cl)cn1 [TP74, 5-(6-Chloro-1H-indazol-5-yl)pyridin-2-amine] |  | < 10
COc1cc2[nH]ncc2cc1-c1ccc(N)nc1 [TP79, 5-(6-Methoxy-1H-indazol-5-yl)pyridin-2-amine] |  | < 10
CC1=CCc2cc(C3=CCCNC3)ccc21 [TP97, 5-(3-Methyl-1H-inden-6-yl)-1,2,3,6-tetrahydropyridine] |  | < 5
Nc1ccc(-c2cc3cn[nH]c3cc2F)cn1 [TP75, 5-(6-Fluoro-1H-indazol-5-yl)pyridin-2-amine] |  | < 10

Same assay, conditions: at 100 μM

Compound | Arrestin effect at 100 μM [% at 100 μM]
Nc1ccc(-c2ccc3[nH]ncc3c2Cl)cn1 [TP85, 5-(4-Chloro-1H-indazol-5-yl)pyridin-2-amine] | 34

Target: human α2AAR (Homo sapiens (Human), UniProt P08913)
Sequence (P08913 whole entry): as above
Experiment: Gαi G protein activation, BRET biosensor assay in HEK293T cells
Conditions: HEK-293T, read-out: Gαi Emax

Compound | Emax [%]
NC[C@H](O)c1ccc(O)c(O)c1 [NorEpi, norepinephrine, reference compound] | 100

Target: T1, ALPHA-2A ADRENERGIC RECEPTOR
Experiment: Gi recruitment (G protein)
Format: cell-based
Conditions: Gi recruitment, Table 6, result in words

Compound | functional classification (agonist / weak agonist)
Oc1ccc2c(Nc3ccncc3)cccc2c1 [PS85] | agonist
Fc1cccc2c(Nc3ccncc3)cncc12 [PS82] | agonist
Cc1cc2c(Nc3ccncc3)cccc2cn1 [PS74] | agonist
CN1CCc2c(Nc3ccncc3)cccc2C1=O [PS77] | agonist
Fc1ccc2cncc(Nc3ccncc3)c2c1 [PS76] | agonist
Cc1cc(Nc2ccncc2)c2ccccc2n1 [Compound 9506, 2-methyl-N-(pyridin-4-yl)quinolin-4-amine] | weak agonist
CN1C(=O)CCc2c(Nc3ccncc3)cccc21 [PS78] | agonist
COc1cccc2c(Nc3ccncc3)cncc12 [PS79] | agonist

Same assay, conditions: Gi recruitment, Table 6; read-out: EC50

Compound | EC50 [nM]
Oc1ccc2c(Nc3ccncc3)cccc2c1 [PS85] | 87
Fc1cccc2c(Nc3ccncc3)cncc12 [PS82] | 230
Cc1cc2c(Nc3ccncc3)cccc2cn1 [PS74] | 450
CN1CCc2c(Nc3ccncc3)cccc2C1=O [PS77] | 1200
Fc1ccc2cncc(Nc3ccncc3)c2c1 [PS76] | 89
Cc1cc(Nc2ccncc2)c2ccccc2n1 [Compound 9506, 2-methyl-N-(pyridin-4-yl)quinolin-4-amine] | 950
COc1ccc2c(Nc3ccncc3)cccc2c1 [PS73] | 50
CN1C(=O)CCc2c(Nc3ccncc3)cccc21 [PS78] | 43
COc1cccc2c(Nc3ccncc3)cncc12 [PS79] | 100

Same assay, conditions: Gi recruitment, Tables 7-9

Compound | G protein Emax (%)
4-(1,2,5,6-tetrahydropyridin-3-yl)-1H-indole [PS-NN04] | 63

Same assay, conditions: Gi recruitment, Tables 7-9; read-out: G protein EC50

Compound | EC50 [nM]
Nc1ccc(-c2ccc3[nH]ncc3c2Cl)cn1 [TP85, 5-(4-Chloro-1H-indazol-5-yl)pyridin-2-amine] | 220
4-(1,2,5,6-tetrahydropyridin-3-yl)-1H-indole [PS-NN04] | 130
Nc1ccc(-c2cc(Cl)c3[nH]ncc3c2)cn1 [TP73, 5-(7-Chloro-1H-indazol-5-yl)pyridin-2-amine] | 8700
CN(c1ccc(N)c(F)c1)c1ccccn1 [Compound 6254, 3-Fluoro-N^1-methyl-N^1-(pyridin-2-yl)benzene-1,4-diamine] | 5400
Nc1ncccc1-c1ccc2scnc2c1 [Compound 8723, 3-(Benzo[d]thiazol-5-yl)pyridin-2-amine] | 1300
Nc1ccc(-c2cc3cn[nH]c3cc2Cl)cn1 [TP74, 5-(6-Chloro-1H-indazol-5-yl)pyridin-2-amine] | 200
Cc1coc2ccc(C3=CCCNC3)cc12 [Compound 9677, 5-(3-Methylbenzofuran-5-yl)-1,2,3,6-tetrahydropyridine] | 170
C=C(c1ccccc1)c1c(F)ccnc1N [Compound 9689] | 7300
Cc1cc(-c2ccc3[nH]ncc3c2C)cnc1N [Compound 5649, 3-Methyl-5-(4-methyl-1H-indazol-5-yl)pyridin-2-amine] | 1000
Nc1ccc(-c2cc3cn[nH]c3cc2F)cn1 [TP75, 5-(6-Fluoro-1H-indazol-5-yl)pyridin-2-amine] | 89
Nc1ccc(Nc2ccccn2)cc1Cl [Compound 7502, 3-Chloro-N^1-(pyridin-2-yl)benzene-1,4-diamine] | 460
C1=C(c2cccc3ccccc23)CNCC1 [Compound 3461, 5-(Naphthalen-1-yl)-1,2,3,6-tetrahydropyridine] | 450
3-Methyl-N^1-(pyridin-2-yl)benzene-1,4-diamine [Compound 5822] | 1100
Cc1cccc(N(C)c2ccc(N)nc2)c1 [Compound 9878, N^5-methyl-N^5-(m-tolyl)pyridine-2,5-diamine] | 1100
CN(c1cccc(Cl)c1)c1cc(N)ccn1 [Compound 2029, N^2-(3-Chlorophenyl)-N^2-methylpyridine-2,4-diamine] | 1400
C1=C(c2cccc3c2CCC3)CNCC1 [Compound 3827, 5-(2,3-dihydro-1H-inden-4-yl)-1,2,3,6-tetrahydropyridine] | 390
CN(c1cccc(O)c1)c1cc(N)ccn1 [Compound 9448, 3-((4-Aminopyridin-2-yl)(methyl)amino)phenol] | 2900
Nc1ccnc(Oc2ccc(F)cc2)c1 [Compound 4783, 2-(4-Fluorophenoxy)pyridin-4-amine] | 580
C1=C(c2ccc3c(c2)CCO3)CNCC1 [Compound 9700, 5-(2,3-Dihydrobenzofuran-5-yl)-1,2,3,6-tetrahydropyridine] | 800
Nc1ncccc1-c1ccc2[nH]ncc2c1 [Compound 9241, 3-(1H-Indazol-5-yl)pyridin-2-amine] | 2100
C=C(c1ccccc1)c1cccnc1N [Compound 9280] | 2600
Cc1ccc(Nc2ccccn2)cc1C [Compound 4472, N-(3,4-Dimethylphenyl)pyridin-2-amine] | 3300
Cc1c(-c2cccnc2N)ccc2[nH]ncc12 [Compound 5193, 3-(4-Methyl-1H-indazol-5-yl)pyridin-2-amine] | 3100
4-Methyl-5-(1,2,5,6-tetrahydropyridin-3-yl)-1H-pyrrolo[2,3-b]pyridine [Compound 9661] | 680

Same assay, conditions: Gi recruitment, Tables 7-9; read-out: G protein Emax (%)

Compound | Emax [%]
Nc1ccc(-c2ccc3[nH]ncc3c2Cl)cn1 [TP85, 5-(4-Chloro-1H-indazol-5-yl)pyridin-2-amine] | 81
Nc1ccc(-c2cc(Cl)c3[nH]ncc3c2)cn1 [TP73, 5-(7-Chloro-1H-indazol-5-yl)pyridin-2-amine] | 27
Nc1ccc(-c2cc3cn[nH]c3cc2Cl)cn1 [TP74, 5-(6-Chloro-1H-indazol-5-yl)pyridin-2-amine] | 64
COc1cc2[nH]ncc2cc1-c1ccc(N)nc1 [TP79, 5-(6-Methoxy-1H-indazol-5-yl)pyridin-2-amine] | < 6
CC1=CCc2cc(C3=CCCNC3)ccc21 [TP97, 5-(3-Methyl-1H-inden-6-yl)-1,2,3,6-tetrahydropyridine] | < 10
Nc1ccc(-c2cc3cn[nH]c3cc2F)cn1 [TP75, 5-(6-Fluoro-1H-indazol-5-yl)pyridin-2-amine] | 18

Same assay, conditions: at 100 μM

Compound | G protein effect at 100 μM [% at 100 μM]
Nc1ccc(-c2cc(C(F)(F)F)c3[nH]ncc3c2)cn1 [TP87, 5-(7-(Trifluoromethyl)-1H-indazol-5-yl)pyridin-2-amine] | 27

System: not listed separately
Experiment: Pharmacokinetics in mice (plasma, brain, CSF)
Format: in vivo
Conditions: C57BL/6N ('9087), C57BL/6 (PS75), mouse, plasma, iv, I.V. 10 mg/kg
Description: Pharmacokinetics. Pharmacokinetic experiments were performed by Bienta (Enamine Biology Services) in accordance with Enamine pharmacokinetic study protocols and Institutional Animal Care and Use Guidelines (protocol number 1-2/2020). […] In each compound study, nine time points (5, 15, 30, 60, 120, 240, 360, 480 and 1440 min) were collected, each of the time point treatment group included 3 animals. There was also a control group of one animal. In the ‘9087, ‘7075, ‘4622 studies, male C57BL/6N mice were used, for PS75 CD-1 mice, and for ‘2998 male Balb/cAnN mice. For all compound studies the animals were randomly assigned to the treatment groups before the pharmacokinetic study; all animals were fasted for 4 h before dosing. For injections, ‘9087 was dissolved in Captisol—water (40%:60%, w/v), ‘4622 was dissolved in a 20% Kolliphor HS—physiological saline solution, and ‘7075, PS75, and ‘2998 were dissolved in a 20% 2-HPBCD—aqueous solution. The batches of working formulations were prepared 10 minutes prior to the in vivo study.
Mice were injected i.p. with 2,2,2-tribromoethanol at 150 mg/kg prior to drawing CSF and blood. CSF was collected under a stereomicroscope from cisterna magna using 1 mL syringes. Blood collection was performed from the orbital sinus in microtainers containing K3EDTA. Animals were sacrificed by cervical dislocation after the blood samples collection. Blood samples were centrifuged 10 min at 3000 rpm. Brain samples (right lobe) were weighed and transferred into 1.5 ml tubes. All samples were immediately processed, flash-frozen and stored at −70° C. until subsequent analysis.
Plasma samples (40 μL) were mixed with 200 μL of internal standard (IS) solution. After mixing by pipetting and centrifuging for 4 min at 6000 rpm, 4 μL of each supernatant was injected into the LC-MS/MS system. Solutions of internal standards were used to quantify compounds in the plasma samples. […] After this, the samples were centrifuged for 4 min at 14,000 rpm, and supernatant was injected into LC-MS/MS system. CSF samples (2 μL) were mixed with 40 μL of an internal stock solution. After mixing by pipetting and centrifuging for 4 min at 6,000 rpm, 5 μL of each supernatant was injected into LC-MS/MS system.
(§1) Analyses of plasma, brain and CSF samples were conducted at Enamine/Bienta. The concentrations of compounds in plasma and brain samples were determined using high performance liquid chromatography/tandem mass spectrometry (HPLC-MS/MS). Data acquisition and system control was performed using Analyst 1.5.2 software (AB Sciex, Canada). […] Pharmacokinetic data analysis was performed using noncompartmental, bolus injection or extravascular input analysis models in WinNonlin 5.2 (PharSight).
Mice were injected i.p. with 2,2,2-tribromoethanol at 150 mg/kg prior to drawing CSF and blood. CSF was collected under a stereomicroscope from cisterna magna using 1 mL syringes. Blood collection was performed from the orbital sinus in microtainers containing K3EDTA. Animals were sacrificed by cervical dislocation after the blood samples collection. Blood samples were centrifuged 10 min at 3000 rpm. Brain samples (right lobe) were weighed and transferred into 1.5 mL tubes. All samples were immediately processed, flash-frozen and stored at −70° C. until subsequent analysis.
as §1
Additional pharmacokinetic experiments were performed by Sai Life Sciences (Hyderabad, India) in accordance with the Sai Study Protocol SAIDMPK/PK-22-04-0340. […] Testing was done in C57BL/6 mice.

Compound | AUC [ng·h/mL] | Cmax [ng/mL]
c1ccc2c(Nc3ccncc3)cncc2c1 [Compound 9087, N-(pyridin-4-yl)isoquinolin-4-amine] | 1750 | 2020

Same assay, conditions: C57BL/6N ('9087), C57BL/6 (PS75), mouse, plasma, po, P.O. 30 mg/kg

Compound | AUC [ng·h/mL] | Cmax [ng/mL]
c1ccc2c(Nc3ccncc3)cncc2c1 [Compound 9087, N-(pyridin-4-yl)isoquinolin-4-amine] | 8430 | 2720

Same assay, conditions: I.P. 10 mg/kg

Compound | AUC Brain [ng·min/mL] | AUC CSF [ng·min/mL] | Cmax Brain [ng/mL] | Cmax CSF [ng/mL]
c1ccc2c(Nc3ccncc3)cncc2c1 [Compound 9087, N-(pyridin-4-yl)isoquinolin-4-amine] | 439000 | 154000 | 5960 | 447

Same assay, conditions: I.V. 10 mg/kg

Compound | Cmax Brain [ng/mL]
c1ccc2c(Nc3ccncc3)cncc2c1 [Compound 9087, N-(pyridin-4-yl)isoquinolin-4-amine] | 6590

Same assay, conditions: P.O. 30 mg/kg

Compound | Cmax Brain [ng/mL]
c1ccc2c(Nc3ccncc3)cncc2c1 [Compound 9087, N-(pyridin-4-yl)isoquinolin-4-amine] | 14000

Same assay, conditions: mouse, plasma, ip, I.P. 10 mg/kg

Compound | AUC [ng·h/mL] | Cmax [ng/mL]
c1ccc2c(Nc3ccncc3)cncc2c1 [Compound 9087, N-(pyridin-4-yl)isoquinolin-4-amine] | 1830 | 1440
